Laboratory results as given in patent US12090149B2, “SMAD3 inhibitors” (Moexa Pharmaceuticals Limited, priority 2018, dated 2024).

How the values were obtained:
Solubility in DMSO = assay type: physicochemical
[1] = system: TGFβ/Smad Signaling Pathway SBE Reporter—HEK293 Cell Line; assay: TGFβ/Smad SBE reporter luciferase assay in HEK293 cells stimulated with human TGFβ1; assay type: cell-based; conditions: 4 h compound, then TGFβ1 20 ng/ml ~18 h
Experimental: • 1. TGFβ/Smad Signaling Pathway SBE Reporter—HEK293 Cell Line BPS Bioscience Catalog #: 60653 • 2. Human TGFβ1 (BPS Bioscience #90900-1) • 3. SIS3 (Sigma #S0447): inhibitor of TGFβ pathway. Prepare stock soln. in DMSO • 4. Growth medium: MEM medium (Invitrogen #11095-080)+10% FBS (ATCC #30-2020)+1% non-essential amino acids (Lonza #13-114E)+1 mM Na pyruvate (Lonza #13-115E)+1% Penicillin/Streptomycin (ATCC #30-2300)+400 μg/ml of Geneticin (Invitrogen #11811-031) • 5. Assay medium: MEM medium+0.5% FBS+1% non-essential amino acids+1 mM Na pyruvate+1% Pen/Strep • 6. 96-well tissue culture-treated white clear-bottom assay plate (Corning #3610) • 7. ONE-Step™ Luciferase Assay System (BPS, Cat. #60690)
SBE reporter-HEK293 cells were harvested from culture in growth medium and seeded at a density of ˜10,000 cells per well into a white clear-bottom 96-well microplate in 100 μl of assay medium. The plate containing cells was incubated at 37° C. in a CO2 incubator. 24 h after seeding, cells were washed with 100 μL of assay buffer and treated with three-fold serial dilution of compounds in 50 μl assay medium. […]
After 18 h of incubation, Luciferase assay was performed using ONE-Step™ Luciferase Assay System according to the protocol provided: 50 μl of ONE-Step™ Luciferase reagent was added per well and shook at room temperature for […]. Luminescence was measured using a luminometer.

[2] = Body weight of tumor bearing mice in the B16-F10 syngeneic model; assay type: in vivo, C57BL/6 mice
Experimental: • Animal species and strain: C57BL/6 mice • History of treatment: Naive • Sex, age and weight: Female, 6-8 weeks • Breeder/supplier: Shanghai SLAC Laboratory Animal Co. Ltd • Adaptation: At least 7 days • Room: SPF Room • Room temperature: 20-26° C. • Room relative humidity: 40-70% • Light cycle: Fluorescent light for 12-hour light (08:00-20:00) and 12-hour dark • Animal hosting: 2-5 mice/cage each group • Food: Free access to food • Water: Free access to water (municipal tap water filtered by reverse osmosis or high-pressure sterilizer)
B16-F10 cells (3×10^5 in 100 μL of serum-free medium) were inoculated to each of C57BL/6 mice via s.c. under anesthesia by 3-4% isoflurane. Each group contains 15 mice.
When average tumor volume reached 35-60 mm^3, 15 mice were randomized into group 6. The day of inoculation was denoted as day 0.
Body weight was measured on Day 4, 5, 6, 8, 11, 13, 15 and 18 after inoculation. When required, body weight was measured daily.
Results were expressed as mean±S.E.M. Comparisons between two groups were made by Dunnett's multi-comparison test, p<0.05 were considered as significant.

[3] = 10 mg/kg q.d. * 3W i.p., Day 11
[4] = 10 mg/kg q.d. * 3W i.p., Day 13
[5] = 10 mg/kg q.d. * 3W i.p., Day 15
[6] = 10 mg/kg q.d. * 3W i.p., Day 18
[7] = 30 mg/kg q.d. * 3W i.p., Day 11
[8] = 30 mg/kg q.d. * 3W i.p., Day 13
[9] = 30 mg/kg q.d. * 3W i.p., Day 15
[10] = 30 mg/kg q.d. * 3W i.p., Day 18

Compound | Body weight (g) Mean ([2]; 10 mg/kg q.d. * 3W i.p., Day 1) [g] | Body weight (g) Mean ([2]; 10 mg/kg q.d. * 3W i.p., Day 4) [g] | Body weight (g) Mean ([2]; 10 mg/kg q.d. * 3W i.p., Day 5) [g] | Body weight (g) Mean ([2]; 10 mg/kg q.d. * 3W i.p., Day 6) [g] | Body weight (g) Mean ([2]; 10 mg/kg q.d. * 3W i.p., Day 8) [g] | Body weight (g) Mean [2, 3] [g] | Body weight (g) Mean [2, 4] [g] | Body weight (g) Mean [2, 5] [g] | Body weight (g) Mean [2, 6] [g] | Body weight (g) Mean ([2]; 30 mg/kg q.d. * 3W i.p., Day 1) [g] | Body weight (g) Mean ([2]; 30 mg/kg q.d. * 3W i.p., Day 4) [g] | Body weight (g) Mean ([2]; 30 mg/kg q.d. * 3W i.p., Day 5) [g] | Body weight (g) Mean ([2]; 30 mg/kg q.d. * 3W i.p., Day 6) [g] | Body weight (g) Mean ([2]; 30 mg/kg q.d. * 3W i.p., Day 8) [g] | Body weight (g) Mean [2, 7] [g] | Body weight (g) Mean [2, 8] [g] | Body weight (g) Mean [2, 9] [g] | Body weight (g) Mean [2, 10] [g] | other results
COc1cc2c(cc1OC)CN(C(=O)/C=C/c1c(-c3ccccc3)nc3ccccn13)CC2 [Compound 8, (E)-1-(6,7-dimethoxy-3,4-dihydroisoquinolin-2(1H)-yl)-3-(2-phenylimidazo[1,2-a]pyridin-3-yl)prop-2-en-1-one] | 16.73 | 16.41 | 16.26 | 16.21 | 16.67 | 17.33 | 17.51 | 18.85 | 21.26 | 16.70 | 16.54 | 16.32 | 16.18 | 16.60 | 17.36 | 17.78 | 18.73 | 20.93 | soluble in DMSO (Solubility in DMSO): soluble; IC50 ([1]; Homo sapiens): 3.53 µM; Body weight (g) Mean ([2]; 100 mg/kg q.d. * 3W i.p. (group 6), Day 11): 17.20 g; Body weight (g) Mean ([2]; 100 mg/kg q.d. * 3W i.p. (group 6), Day 13): 17.95 g; Body weight (g) Mean ([2]; 100 mg/kg q.d. * 3W i.p. (group 6), Day 15): 18.78 g; Body weight (g) Mean ([2]; 100 mg/kg q.d. * 3W i.p. (group 6), Day 18): 21.82 g; Body weight (g) Mean ([2]; 100 mg/kg q.d. * 3W i.p. (group 6, randomized at tumor volume 35-60 mm^3), Day 8): 17.36 g
COc1cc2c(cc1OC)CN(C(=O)/C=C/c1c(-c3ccccc3)n(C)c3ncccc13)CC2.Cl [SIS3, reference compound] | 16.72 | 16.64 | 16.55 | 16.50 | 16.83 | 17.53 | 17.84 | 19.04 | 20.77 | 16.72 | 16.66 | 16.55 | 16.59 | 16.69 | 17.30 | 17.53 | 18.45 | 20.70 | IC50 [1]: 2.96 µM
